Measured values: patent US20240181068A1, “SELECTIVE NEUTRAL PH INHIBITOR OF CATHEPSIN B” (The Regents of the University of California, priority 2021, published 2024)

How the values were obtained:
[1] = target: T1, cathepsin B in human neuroblastoma cells (SHSY5Y) (Homo sapiens, UniProt P07858); test: Neuroblastoma cells incubated with inhibitors, then cathepsin B assay; format: cell-based
T1 construct: endogenous in cells; host or cells: SH-SY5Y human neuroblastoma cells
Description: Cathepsin B in human neuroblastoma cells treated with inhibitors. Neuroblastoma cells (human SHSY5Y) were grown in media consisting of 50% MEMalpha, 50% F12-K, 10% heat-inactivated FBS at 37° C. in an atmosphere of 95% air and 5% CO2. Firstly, cell homogenates were prepared by collection of cells in 0.32 M sucrose and freeze-thawing. Secondly, cells were incubated with Z-Arg-Lys-AOMK or CA-074Me for 6 hours at 37° C., and washed 3 times in phosphate-buffered saline and homogenates were prepared in 0.32 M sucrose with freeze-thawing. CA-074Me is a methyl ester form of the active CA-074 selective inhibitor of cathepsin B (70); CA-074Me penetrates the cell and is converted by intracellular esterases to CA-074.
Cathepsin B activity in the homogenates were monitored with Z-Arg-Arg-AMC substrate (60 μM) with buffer conditions of 40 mM citrate-phosphate, pH 5.5, 5 mM DTT, 1 mM EDTA, 100 mM NaCl, and 1.2% DMSO, followed by incubation at 37° C. for 30 minutes and reading of AMC fluorescence. CA-074-senstive activity was monitored to indicate cathepsin B activity, since CA-074 is a selective inhibitor of this enzyme (70). Protein content was measured in homogenates with the DC protein assay kit. Cathepsin B specific activity was calculated as nmol AMC/μg/min, and reported as the mean±SD (with analyses for statistical significance, p<0.05 by student's t-test).

cathepsin S = target: T2, cathepsin S (Homo sapiens, UniProt P25774); test: Specificity of inhibitors: cathepsin S (Z-Phe-Arg-AMC substrate); format: biochemical
T2 construct: purchased R&D Systems 1183-CY-010
T2 sequence (P25774 115-331): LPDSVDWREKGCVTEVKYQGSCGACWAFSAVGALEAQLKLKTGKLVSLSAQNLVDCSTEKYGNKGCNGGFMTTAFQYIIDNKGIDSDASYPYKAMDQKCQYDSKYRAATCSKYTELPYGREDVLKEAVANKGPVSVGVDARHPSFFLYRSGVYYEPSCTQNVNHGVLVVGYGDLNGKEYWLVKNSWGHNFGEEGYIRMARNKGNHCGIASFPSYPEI
Description: (§1) Specificity of inhibitors for other cysteine cathepsin proteases. The effects of Z-Arg-Lys-AOMK and Z-Glu-Lys-AOMK on cathepsin V, L, K, S, X, H and C activities were assessed. IC50 values were calculated at pH 4.6 and pH 7.2 conditions, consisting of 40 mM citrate phosphate, 1 mM EDTA, 100 mM NaCl, and 5 mM DTT. The inhibitor concentrations ranged from 16.38 μM to 256 nM with 2-fold serial dilutions. […] Cathepsin V (0.04 ng/μL), cathepsin L (0.03 ng/μL), cathepsin K (0.10 ng/μL), cathepsin S (0.20 ng/uL) were assayed with 40 μM Z-Phe-Arg-AMC. Cathepsin X (0.20 ng/uL), cathepsin C (0.51 ng/uL) and cathepsin H (0.1 ng/μL) were assayed with 40 μM of MCA-Arg-Pro-Pro-Gly-Phe-Ser-Ala-Phe-Lys(Dnp)OH (SEQ ID NO: 2), Gly-Arg-AMC, and Arg-AMC, respectively. Activation of pro-cathepsin H to cathepsin H was conducted by incubation of cathepsin H (4.4 ng/μL) with cathepsin L (1.1 ng/μL) at RT for 2 hrs in activation buffer (20 mM citrate phosphate pH 6.0, 100 mM NaCl, and 5 mM DTT). Cathepsin C (13.78 ng/μL) was activated by incubation with cathepsin L (3.4 ng/μL) at RT for one hr in activation buffer (20 mM citrate phosphate, pH 6.0, 100 mM NaCl, 5 mM DTT). […] For all assays containing peptide-AMC substrates the fluorescent microplate reader settings were the same as outlined above for cathepsin B. For the cathepsin X assay, the plate reader was set to excitation 320 nm, emission 400 nm, gain 105, top optics and read height 1 mm. To convert RFU/s to picomol/min, 10 μM to 0.005 μM (2-fold serial dilution) of MCA-Arg-Pro-Pro-Gly-Phe-Ser-Ala-Phe-Lys(Dnp)OH (SEQ ID NO: 2) was fully hydrolyzed with excess cathepsin X and a standard curve was generated using the total fluorescence values calculated at each concentration.

cathepsin B = target: T3, cathepsin B (Homo sapiens, UniProt P07858); test: Irreversible mechanism of inhibitors (pre-incubation, dilution, activity); format: biochemical; details: pH 7.2
T3 construct: purchased R&D Systems 953-CY-010
Description: Irreversible mechanism of inhibitors. The irreversible or reversible mechanism of cathepsin B inhibition was assessed for Z-Arg-Lys-AOMK and Z-Glu-Lys-AOMK inhibitors. At pH 7.2, cathepsin B was incubated with 190 nM Z-Arg-Lys-AOMK and 4.99 μM Z-Glu-Lys-AOMK for 15 min in pH 7.2 assay buffer and the assay was performed as described above for pH 4.6. Proteolytic activity was monitored for 2 hr. At pH 4.6, cathepsin B (activated, 3.7 ng/μL) was incubated with 4.24 μM Z-Arg-Lys-AOMK and 3.48 μM Z-Glu-Lys-AOMK for 15 min in 40 mM citrate phosphate pH 4.6, 1 mM EDTA, 100 mM NaCl, and 5 mM DTT; a vehicle control contained 2.5% DMSO. Each reaction was then diluted 100-fold in assay buffer such that the final assay composition was 0.04 ng/μL cathepsin B, 40 μM Z-Phe-Arg-AMC, and an inhibitor concentration of 1/10th the IC50 value.

cathepsin X = cathepsin X (Homo sapiens, UniProt Q9UBR2); test: Specificity of inhibitors: cathepsin X (MCA peptide substrate); format: biochemical
Chain of cathepsin X (Q9UBR2 62-303): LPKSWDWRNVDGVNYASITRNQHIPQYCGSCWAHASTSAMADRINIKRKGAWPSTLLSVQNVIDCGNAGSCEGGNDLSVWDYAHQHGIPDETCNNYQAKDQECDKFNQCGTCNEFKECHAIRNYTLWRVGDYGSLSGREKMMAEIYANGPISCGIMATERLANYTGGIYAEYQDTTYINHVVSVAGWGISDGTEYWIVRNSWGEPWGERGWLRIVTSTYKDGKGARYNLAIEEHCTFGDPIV
Description: as §1

cathepsin K = target: T4, cathepsin K (Homo sapiens, UniProt P43235); test: Specificity of inhibitors: cathepsin K (Z-Phe-Arg-AMC substrate); format: biochemical
T4 construct: purchased Abcam ab157067
T4 sequence (P43235 115-329): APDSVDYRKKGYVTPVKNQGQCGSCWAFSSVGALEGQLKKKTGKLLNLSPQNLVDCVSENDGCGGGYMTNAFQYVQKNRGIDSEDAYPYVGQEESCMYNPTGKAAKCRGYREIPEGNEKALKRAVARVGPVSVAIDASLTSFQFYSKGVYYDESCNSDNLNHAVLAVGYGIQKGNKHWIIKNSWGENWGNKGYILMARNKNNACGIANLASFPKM
Description: as §1

cathepsin H = target: T5, cathepsin H (Homo sapiens, UniProt P09668); test: Specificity of inhibitors: cathepsin H (Arg-AMC substrate); format: biochemical
T5 construct: purchased R&D Systems 75116-CY-010
T5 sequence (P09668 116-335 limits assumed, other chains not shown): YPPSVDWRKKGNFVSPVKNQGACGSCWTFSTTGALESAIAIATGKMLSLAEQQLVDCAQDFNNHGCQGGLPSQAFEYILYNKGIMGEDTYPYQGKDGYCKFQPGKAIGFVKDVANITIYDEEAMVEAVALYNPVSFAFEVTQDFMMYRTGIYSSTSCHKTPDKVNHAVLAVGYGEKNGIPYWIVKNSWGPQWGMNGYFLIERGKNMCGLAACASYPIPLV
Description: as §1

- inhibition of cellular cathepsin B activity ([1]; cells incubated with 50 μM inhibitor for 6 hrs, washed, homogenate assayed with Z-Arg-Arg-AMC): completely inhibited
- cell permeability ([1]; neuroblastoma cells, 50 μM, 6 hrs): cell permeable
- IC50 (cathepsin S; cathepsin S, pH 4.6): > 16 µM
- inhibition at 16 µM (cathepsin S; cathepsin S, pH 4.6, 16,000 nM inhibitor): 13%
- inhibition of cathepsin S (cathepsin S; pH 4.6, inhibitor at 16 μM): minimal inhibition
- fold more potent for cathepsin B than cathepsin S (cathepsin S; pH 7.2, from IC50): 110 fold
- cathepsin B activity after pre-incubation and dilution of inhibitor (cathepsin B): no cathepsin B activity
- IC50 (cathepsin X; cathepsin X, pH 4.6): > 16 µM
- inhibition at 16 µM (cathepsin X; cathepsin X, pH 4.6, 16,000 nM inhibitor): 21%
- inhibition of cathepsin X (cathepsin X; pH 4.6, inhibitor at 16 μM): minimal inhibition
- IC50 (cathepsin K; cathepsin K, pH 4.6): > 16 µM
- IC50 (cathepsin K; cathepsin K, pH 7.2): > 16 µM
- inhibition at 16 µM (cathepsin K; cathepsin K, pH 7.2, 16,000 nM inhibitor): 31%
- inhibition of cathepsin K (cathepsin K; pH 4.6, inhibitor at 16 μM): no inhibition
- inhibition of cathepsin K (cathepsin K; pH 7.2, inhibitor at 16 μM): minimally inhibited
- IC50 (cathepsin H; cathepsin H, pH 4.6): > 16 µM
- IC50 (cathepsin H; cathepsin H, pH 7.2): > 16 µM
- inhibition at 16 µM (cathepsin H; cathepsin H, pH 7.2, 16,000 nM inhibitor): 29%
- inhibition of cathepsin H (cathepsin H; pH 4.6, inhibitor at 16 μM): no inhibition
- inhibition of cathepsin H (cathepsin H; pH 7.2, inhibitor at 16 μM): minimally inhibited
Compound: Cc1cccc(C)c1C(=O)OCC(=O)C(CCCCN)NC(=O)C(CCCNC(=N)N)NC(=O)OCc1ccccc1 (stereo not drawn) [Z-Arg-Lys-AOMK]
